Values quoted from earlier work in patent US20040259899A1, “Combination therapy for constipation” (priority 2003, published 2004).

Settings: white crystalline powder as provided (Mallinckrodt Pharmaceuticals)

With `C[N@+]1(CC2CC2)CC[C@]23c4c5ccc(O)c4O[C@H]2C(=O)CC[C@@]3(O)[C@H]1C5` [Methylnaltrexone, N-cyclopropylmethylnoroxy-morphine-methobromide] as the compound, how does the solubility in water read?
Its solubility in water is “freely soluble”.
